{"source": "patent US8617906B2", "about": "“Identification and screening of triptolide target molecules” (priority 2004, dated 2013)", "key": {"14-3-3 ε (PG773)": {"molecular_target": "T1, 14-3-3 ε (PG773) (Homo sapiens, UniProt P62258)", "T1 construct": "endogenous in cells; host or cells: Jurkat", "T1 sequence (P62258 whole entry)": "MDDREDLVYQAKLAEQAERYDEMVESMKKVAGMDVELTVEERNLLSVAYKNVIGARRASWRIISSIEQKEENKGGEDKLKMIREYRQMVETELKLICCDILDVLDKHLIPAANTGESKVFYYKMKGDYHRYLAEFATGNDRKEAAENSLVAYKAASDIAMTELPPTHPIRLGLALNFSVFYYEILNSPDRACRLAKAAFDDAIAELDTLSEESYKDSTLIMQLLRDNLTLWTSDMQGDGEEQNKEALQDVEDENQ", "experiment": "Isolation of proteins binding 3H-triptolide in Jurkat cells", "settings": "3H-labeled compound incubated with Jurkat cells", "procedure": "Triptolide target molecules were isolated and identified by purification and identification of molecules that bind ^3H-triptolide. Jurkat cells from expanding cultures were labeled with ^3H-triptolide by cultivation at 37° C. with 5% CO2 for a period of time between a few hours and overnight (usually 6-7 hours) and harvested by centrifugation and washing in ice-cold phosphate buffered saline. The cells (usually 1-3×10^6/ml) were generally labeled with ^3H-triptolide to a final concentration of 35 nM (100 μCi/200 ml of medium). […]\n(§1) The cells were extracted with M-per buffer (Pierce) and homogenized in presence of a protease inhibitor cocktail, sometimes including other reagents such as deoxyribonuclease (DNase). […] When the extracts components were found not to be sufficiently purified, enriched or reduced in number, 2D gel electrophoresis was employed, followed by fluorography for ^3H-associated radioactivity detection, and MALDI/MS of the corresponding peptides (after proteolysis) and peptide fingerprinting. […]\nMALDI-MS peptide fingerprinting analysis identified HSP 90β (PG771) in fraction #4 and L-plastin (PG772) in fraction #9. […] A positive spot on the film (fluorographically positive, therefore positive for ^3H-associated radioactivity) was seen near the 29 kDa protein marker. […]"}, "[1]": {"molecular_target": "T2, Thioredoxin Reductase (PG774) (Homo sapiens, UniProt Q16881)", "T2 construct": "endogenous in cells; host or cells: Jurkat", "T2 sequence (Q16881 151-649 limits assumed)": "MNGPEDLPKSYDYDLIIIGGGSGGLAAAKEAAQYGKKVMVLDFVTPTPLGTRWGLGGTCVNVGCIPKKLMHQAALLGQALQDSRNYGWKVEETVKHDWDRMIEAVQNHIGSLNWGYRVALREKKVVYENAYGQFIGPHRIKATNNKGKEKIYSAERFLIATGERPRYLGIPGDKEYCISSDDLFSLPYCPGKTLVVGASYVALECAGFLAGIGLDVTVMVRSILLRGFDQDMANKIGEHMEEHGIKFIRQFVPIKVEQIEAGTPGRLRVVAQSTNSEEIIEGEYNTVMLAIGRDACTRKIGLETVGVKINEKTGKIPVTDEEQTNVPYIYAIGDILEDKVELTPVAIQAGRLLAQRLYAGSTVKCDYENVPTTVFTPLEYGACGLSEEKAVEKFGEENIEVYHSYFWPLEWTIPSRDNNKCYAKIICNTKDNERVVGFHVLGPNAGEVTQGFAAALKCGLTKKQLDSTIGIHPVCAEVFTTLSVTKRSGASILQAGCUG", "experiment": "Isolation of proteins binding 3H-triptolide in Jurkat cells", "settings": "3H-labeled compound incubated with Jurkat cells", "procedure": "(§2) Triptolide target molecules were isolated and identified by purification and identification of molecules that bind ^3H-triptolide. Jurkat cells from expanding cultures were labeled with ^3H-triptolide by cultivation at 37° C. with 5% CO2 for a period of time between a few hours and overnight (usually 6-7 hours) and harvested by centrifugation and washing in ice-cold phosphate buffered saline. The cells (usually 1-3×10^6/ml) were generally labeled with ^3H-triptolide to a final concentration of 35 nM (100 μCi/200 ml of medium). Collected cell pellets were pooled, and the cells were either extracted and subjected to separation and purification at that time, or were frozen and stored at −20° C. as pellets for extraction and investigation at a later time.\nas §1"}, "[2]": {"molecular_target": "T3, Protein Disulfide Isomerase (PG775) (Homo sapiens, UniProt P07237)", "T3 construct": "endogenous in cells; host or cells: Jurkat", "T3 sequence (P07237 18-508)": "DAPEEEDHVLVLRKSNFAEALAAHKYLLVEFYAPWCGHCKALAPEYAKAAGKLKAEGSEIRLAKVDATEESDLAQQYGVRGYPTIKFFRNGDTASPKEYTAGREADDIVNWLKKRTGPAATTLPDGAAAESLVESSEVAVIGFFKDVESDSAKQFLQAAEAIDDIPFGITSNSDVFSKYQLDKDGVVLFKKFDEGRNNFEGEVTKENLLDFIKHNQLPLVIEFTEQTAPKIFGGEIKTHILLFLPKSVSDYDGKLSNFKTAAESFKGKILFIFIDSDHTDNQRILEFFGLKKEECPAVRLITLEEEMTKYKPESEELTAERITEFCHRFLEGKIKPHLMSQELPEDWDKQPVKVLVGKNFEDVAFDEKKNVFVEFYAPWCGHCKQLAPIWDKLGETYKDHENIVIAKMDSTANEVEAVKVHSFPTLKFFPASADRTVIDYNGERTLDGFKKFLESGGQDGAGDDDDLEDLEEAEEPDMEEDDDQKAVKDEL", "experiment": "Isolation of proteins binding 3H-triptolide in Jurkat cells", "settings": "3H-labeled compound incubated with Jurkat cells", "procedure": "as §2, §1"}, "Vimentin (PG778)": {"molecular_target": "T4, Vimentin (PG778) (Homo sapiens, UniProt P08670)", "T4 construct": "endogenous in cells; host or cells: Jurkat", "T4 sequence (P08670 whole entry)": "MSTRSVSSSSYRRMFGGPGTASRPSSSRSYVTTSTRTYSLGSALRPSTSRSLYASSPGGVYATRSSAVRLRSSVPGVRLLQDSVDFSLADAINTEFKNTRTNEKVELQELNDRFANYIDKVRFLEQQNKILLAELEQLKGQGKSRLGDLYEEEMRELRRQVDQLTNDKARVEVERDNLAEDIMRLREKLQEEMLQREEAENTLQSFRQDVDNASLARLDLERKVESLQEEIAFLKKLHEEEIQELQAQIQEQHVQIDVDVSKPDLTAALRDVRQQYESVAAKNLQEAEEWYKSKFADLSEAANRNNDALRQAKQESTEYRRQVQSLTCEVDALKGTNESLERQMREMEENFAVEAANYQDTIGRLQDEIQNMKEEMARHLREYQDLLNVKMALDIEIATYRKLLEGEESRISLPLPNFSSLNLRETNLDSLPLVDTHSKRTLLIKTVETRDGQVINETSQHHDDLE", "experiment": "Isolation of proteins binding 3H-triptolide in Jurkat cells", "settings": "3H-labeled Jurkat cell extract", "procedure": "as §2, §1"}, "microglia": {"test_system": "microglia", "settings": "cited from earlier work"}, "[3]": {"molecular_target": "T5, hypothetical protein FLJ20297 (PG777) (Homo sapiens, UniProt Q9NXE4)", "T5 construct": "endogenous in cells; host or cells: Jurkat", "T5 sequence (Q9NXE4 whole entry)": "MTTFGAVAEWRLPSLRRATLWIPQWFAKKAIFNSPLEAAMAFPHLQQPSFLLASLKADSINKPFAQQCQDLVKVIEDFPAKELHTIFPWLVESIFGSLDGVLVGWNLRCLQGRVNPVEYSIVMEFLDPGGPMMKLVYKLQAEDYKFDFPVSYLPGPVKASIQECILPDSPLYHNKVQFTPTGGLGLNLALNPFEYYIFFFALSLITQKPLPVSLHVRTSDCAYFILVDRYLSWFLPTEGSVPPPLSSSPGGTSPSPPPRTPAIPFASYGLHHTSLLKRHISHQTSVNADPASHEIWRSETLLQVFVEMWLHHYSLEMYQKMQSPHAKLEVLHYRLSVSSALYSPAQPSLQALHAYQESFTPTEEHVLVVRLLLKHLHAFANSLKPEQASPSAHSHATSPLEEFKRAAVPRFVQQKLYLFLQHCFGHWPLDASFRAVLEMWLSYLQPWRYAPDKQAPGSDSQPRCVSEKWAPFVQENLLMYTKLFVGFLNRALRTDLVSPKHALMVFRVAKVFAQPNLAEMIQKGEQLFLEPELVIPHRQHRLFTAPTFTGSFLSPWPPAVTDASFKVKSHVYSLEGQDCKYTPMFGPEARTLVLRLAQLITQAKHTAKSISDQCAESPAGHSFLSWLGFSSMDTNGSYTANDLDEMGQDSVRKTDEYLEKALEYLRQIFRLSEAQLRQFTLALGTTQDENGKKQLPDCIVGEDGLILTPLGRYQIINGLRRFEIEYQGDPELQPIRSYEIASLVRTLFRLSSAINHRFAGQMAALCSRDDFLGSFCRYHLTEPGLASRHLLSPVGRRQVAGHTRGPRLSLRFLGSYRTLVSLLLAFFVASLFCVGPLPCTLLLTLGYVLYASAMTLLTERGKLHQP", "experiment": "Isolation of proteins binding 3H-triptolide in Jurkat cells", "settings": "3H-labeled Jurkat cell extract", "procedure": "as §2, §1"}, "IL-2": {"test_system": "IL-2", "settings": "cited from earlier work"}, "dopaminergic neurons": {"test_system": "dopaminergic neurons", "settings": "cited from earlier work"}}}
{"smiles": "CC(C)[C@]12O[C@H]1[C@@H]1O[C@]13[C@]1(O[C@H]1C[C@H]1C4=C(CC[C@@]13C)C(=O)OC4)[C@@H]2O", "note": "[triptolide]", "values": [{"measurement": "3H-associated protein identified as triptolide target: 14-3-3 ε", "setting": "14-3-3 ε (PG773)", "value": "identified"}, {"measurement": "3H-associated protein identified as triptolide target: Thioredoxin Reductase", "setting": "[1]", "value": "identified"}, {"measurement": "3H-associated protein identified as triptolide target: Protein Disulfide Isomerase", "setting": "[2]", "value": "identified"}, {"measurement": "3H-associated protein identified as triptolide target: Vimentin", "setting": "Vimentin (PG778)", "value": "identification"}, {"measurement": "LPS-activated microglial activity (nitrite accumulation, TNF-α and IL-1β release)", "setting": "microglia", "value": "powerful inhibitory influence"}, {"measurement": "3H-associated protein identified as triptolide target: FLJ20297", "setting": "[3]", "value": "identification"}, {"measurement": "inhibition of IL-2", "setting": "IL-2", "value": "inhibition of IL-2"}, {"measurement": "LPS-induced decrease in 3H-dopamine uptake and loss of tyrosine hydroxylase-positive neurons", "setting": "dopaminergic neurons", "value": "attenuates"}]}
